In a melting point compilation (Tetko et al.) one finds melting point data, which are given here for 124 compounds.

In general, melting point refers to the temperature, or range, at which the solid turns liquid.

Residues, ends and D or L forms follow the SMILES beside them. *: point of attachment. Boc = CC(C)(C)OC(=O)*

`Cc1nsc2ncc(C(=O)O)cc12`: the melting point lay in the range of 179 to 181 °C.

Compound `O=c1[nH]c2ccc(NCc3ccccc3Cl)cc2[nH]1` yielded a melting point of 227 to 229 °C.

`Cc1ccc(C2NCC(CCl)O2)cc1` (centres undefined): the melting point is 60 to 64 °C.

As to `O=C(O)c1cc(C2CC2)nc2c1cnn2Cc1ccncc1`, the melting point is 238 to 240 °C.

`O=C(NC1CCOCC1)c1ccc(Cl)nn1` had a melting point of 152 to 154 °C.

For `Cc1cccc2c1CCC2=O`, the melting point fell in the range of 94 to 96 °C.

The compound `Cc1cc(C)n(-c2ccc(N)cc2F)n1` registered a melting point of 124 to 126 °C.

In turn, `N#Cc1c(F)cccc1Oc1ccc(N)cc1` yielded a melting point of 156 to 158 °C.

The compound `C#CCN1CCC[C@H]1C(=O)O` displayed a melting point of 151 to 153 °C.

The compound `O=C(O)c1cc(-n2ccnc2)ccn1` had a melting point of 194 to 196 °C.

Compound `Cc1nc2ncnn2c(C)c1CC(=O)O` returned a melting point of 220 to 222 °C.

In the case of `O=Cc1cc(Br)ccc1OCc1ccccc1`, the melting point fell in the range of 61 to 63 °C.

`O=C(O)CCN1C(=O)Cc2ccccc2C1=O` returned a melting point of 148 to 150 °C.

In the case of `COc1ccc2[nH]cc(C(C)=O)c2c1`, the melting point was 206 to 208 °C.

`Cc1cc(O)nc(C2CC2)n1` yielded a melting point of 190 to 192 °C.

For `N#Cc1cnc2ccccc2c1N1CCNCC1`, the melting point fell in the range of 160 to 162 °C.

Turning to `NC(=O)c1cn[nH]c1`, the melting point lay in the range of 223 to 225 °C.

Regarding `NC(=O)c1ccc(NCCO)c([N+](=O)[O-])c1`, the melting point fell in the range of 218 to 220 °C.

In turn, `CC(C)CCn1nc(C(=O)O)c2ccccc2c1=O` showed a melting point of 133 to 135 °C.

`CCNC(=O)OCC(F)(F)F` yielded a melting point of 27 to 29 °C.

Regarding `Nc1cc(Cl)ccc1-n1cncn1`, the melting point was 93 to 97 °C.

For `Cc1ccc(S(=O)(=O)Oc2ncnc3c(F)cc(Br)cc23)cc1`, the melting point lay in the range of 204 to 206 °C.

Regarding `CC(C)(C)CCS(N)(=O)=O`, the melting point lay within 91 to 93 °C.

On to `Nc1ccc(Oc2ccc(Cl)cc2)nc1`, for which the melting point was in the range of 89 to 91 °C.

In turn, `Sc1nncn1C1CC1` came in with a melting point of 189 to 191 °C.

On to `O=C(CCl)NCc1ccc(C(=O)N2CCCC2)cc1`, for which the melting point was 128 to 130 °C.

In turn, `Cc1cc(-c2nnc(CCl)o2)c(C)o1` yielded a melting point of 62 to 64 °C.

The compound `Nc1cc(C(=O)O)ccc1OC(F)F` gave a melting point of 155 to 157 °C.

As to `Nc1cccc(-n2ccnn2)c1`, the melting point lay within 118 to 120 °C.

Take `Cc1cccnc1NC(=O)C1CCNCC1`: the melting point fell in the range of 136 to 138 °C.

In turn, `O=C1CCCc2cc[nH]c21` gave a melting point of 94 to 96 °C.

As for `Cc1nc(=N)c(C)c(C)[nH]1`, the melting point was in the range of 196 to 198 °C.

For the compound `CC(NC(=O)CCl)C(=O)O` (centres undefined), the melting point fell in the range of 125 to 127 °C.

The compound `CC(C)(C)OC(=O)NCC(=O)NCC(=O)O` (Boc-Gly-Gly-OH) registered a melting point of 119 to 121 °C.

As for `O=C(O)C1CC(=O)N(c2ccc3c(c2)OCCO3)C1` (centres undefined), the melting point is 221 to 223 °C.

In turn, `Cc1ccc(C(=O)NN)o1` displayed a melting point of 59 to 61 °C.

In turn, `O=C(CCl)NC(c1ccccc1)c1nccs1` (centres undefined) returned a melting point of 108 to 110 °C.

Compound `CCC1Nc2ccc(C(=O)O)cc2NC1=O` (centres undefined) registered a melting point of 250 to 252 °C.

Consider `Cc1nn(Cc2ccc(Cl)cc2)c(C)c1CO`, for which the melting point is 132 to 134 °C.

On to `O=C(c1ccc(F)cc1F)N1CCCNCC1`, for which the melting point was in the range of 93 to 95 °C.

`NCc1nnn[nH]1`: the melting point fell in the range of 269 to 271 °C.

`Cc1cc2oc(=O)cc(CCl)c2cc1C` displayed a melting point of 188 to 190 °C.

Regarding `O=C(c1ccccc1)c1cc(Br)ccc1F`, the melting point was 67 to 69 °C.

With `COC(=O)C(=O)CC(=O)c1ccc(F)cc1`, the melting point was 125 to 135 °C.

Turning to `O=C1CCCc2ccccc2N1`, the melting point was 129 to 131 °C.

`O=C(O)C1CCCN1C(=O)c1ccncc1` (centres undefined) had a melting point of 79 to 81 °C.

Turning to `COc1cc(OC)c(N)c(C(=O)O)c1`, the melting point was in the range of 189 to 191 °C.

With `NC(=O)NCc1ccc(N)cc1`, the melting point lay within 159 to 161 °C.

In the case of `O=C(O)Cc1csc(-c2ccccc2)n1`, the melting point fell in the range of 89 to 91 °C.

Regarding `O=C(OCc1ccccc1)N1CCC(S(=O)(=O)Cl)CC1`, the melting point is 62 to 64 °C.

`COc1ccc(Cc2nnc(S)n2N)cc1OC` yielded a melting point of 177 to 179 °C.

Consider `CC1(C(=O)O)COC(=O)OC1`, for which the melting point was 159 to 161 °C.

With `O=C(NCC1CCCNC1)Nc1cccc(F)c1` (centres undefined), the melting point was in the range of 123 to 125 °C.

In turn, `COc1ccc(NC(=O)OCC(F)(F)F)cc1` yielded a melting point of 79 to 81 °C.

As to `O=C(CBr)c1ccc(Cl)s1`, the melting point was in the range of 113 to 115 °C.

As to `Cc1nn(C(C)(C)C)c(C)c1N`, the melting point was in the range of 54 to 56 °C.

In turn, `O=C(Nc1ccc(O)cc1)c1ccccc1` registered a melting point of 215 to 217 °C.

The compound `C#CC1CCCN(C(=O)OC(C)(C)C)C1` (centres undefined) returned a melting point of 67 to 69 °C.

Take `O=c1n(CCCl)nc2ccccn12`: the melting point lay within 139 to 141 °C.

As for `CC(C)CN1CCCC(C(=O)O)C1` (centres undefined), the melting point was in the range of 108 to 110 °C.

In the case of `CC(Oc1ccccc1Cc1ccccc1)C(=O)O` (centres undefined), the melting point is 91 to 93 °C.

`O=S(=O)(Cl)c1ccc(S(=O)(=O)N2CCCCC2)cc1` had a melting point of 151 to 153 °C.

For the compound `Nc1cc(F)ccc1OCC1CCCO1` (centres undefined), the melting point fell in the range of 87 to 89 °C.

Turning to `O=C(CBr)c1ccc(N2CCCC2=O)cc1`, the melting point was 130 to 132 °C.

In turn, `Cc1ccc(C#N)cc1N` had a melting point of 76 to 78 °C.

In the case of `O=Cc1cnc(Cl)nc1`, the melting point was 118 to 120 °C.

On to `NC(=O)N1CCc2ccccc21`, for which the melting point is 160 to 162 °C.

`O=C(O)c1cc(S(=O)(=O)Cl)c(Br)cc1F` had a melting point of 147 to 149 °C.

The compound `O=C(O)c1cc(Cl)c([N+](=O)[O-])[nH]1` had a melting point of 236 to 238 °C.

Compound `CCOC(=O)c1ccc(S(=O)(=O)N2CCNCC2)cc1` yielded a melting point of 94 to 96 °C.

Turning to `CC(C(=O)O)n1c(S)nc2ccccc2c1=O` (centres undefined), the melting point was in the range of 238 to 240 °C.

For the compound `Nc1ccc(-c2ccccn2)cn1`, the melting point fell in the range of 89 to 91 °C.

Regarding `N#Cc1cnc(N)cn1`, the melting point is 186 to 188 °C.

`NC(=O)c1ccsc1NC(=O)CCC(=O)O` gave a melting point of 243 to 245 °C.

For the compound `Nc1ccc(-c2cncnc2)cc1`, the melting point lay in the range of 208 to 210 °C.

`CN(C)S(=O)(=O)c1ccsc1C(=O)O` displayed a melting point of 108 to 110 °C.

Regarding `NNC(=O)CNc1ccc(F)cc1`, the melting point is 80 to 83 °C.

`O=S1(=O)C=CC(Br)C1` (centres undefined) had a melting point of 54 to 55 °C.

`COc1cccc(CNc2ccc(F)cc2)c1O` displayed a melting point of 76 to 78 °C.

Consider `O=C(O)c1cc(C2CC2)nc2c1cnn2C1CCCCC1`, for which the melting point was in the range of 210 to 212 °C.

`O=C(CO)c1ccc(Cl)cc1` returned a melting point of 124 to 126 °C.

In turn, `CC1=CC=CC(=C2Nc3cc(F)ccc3N2C(C)C)C1=N` gave a melting point of 185 to 187 °C.

Turning to `CCN1CCN(c2ccc(C#N)cn2)CC1`, the melting point lay in the range of 69 to 71 °C.

Turning to `CCNC(=O)NC1(C(=O)O)CCCC1`, the melting point lay within 142 to 144 °C.

The compound `COc1ccccc1NC(=O)Nc1cc(N)ccc1OC` had a melting point of 167 to 169 °C.

Compound `COc1cccc(-c2n[nH]cc2C=O)c1` had a melting point of 91 to 93 °C.

Turning to `OCCc1cc2cc(Br)ccc2o1`, the melting point was in the range of 67 to 69 °C.

For `CCc1ccc(S(=O)(=O)Cl)cc1C(=O)O`, the melting point lay in the range of 133 to 135 °C.

Consider `Cc1ccccc1C(=O)NC1CCN(C(=O)CCl)CC1`, for which the melting point lay within 126 to 128 °C.

`COc1cc(C=O)cc2c1OCO2`: the melting point is 130 to 134 °C.

`Nc1ccc(Sc2ccccn2)c(Cl)c1` showed a melting point of 110 to 112 °C.

`CCOC(=O)CO/N=C(\C(=O)O)c1cc[nH]n1`: the melting point lay within 128 to 130 °C.

In the case of `Cc1ccc(C(=O)CCl)cc1`, the melting point was in the range of 53 to 57 °C.

For the compound `O=C(O)c1ccc2c(c1)C(=O)NS2(=O)=O`, the melting point lay in the range of 279 to 281 °C.

The compound `O=C1CCCc2cc(O)ccc2N1` showed a melting point of 219 to 221 °C.

`Nc1cccc(NC(=O)N2CCCCCC2)c1` showed a melting point of 121 to 123 °C.

`Nc1cc(I)ccc1Cl`: the melting point was 56 to 58 °C.

With `O=C(O)C1CCCN(C(=O)c2ccc(Cl)cc2)C1` (centres undefined), the melting point lay within 145 to 152 °C.

As to `CC(Sc1ccccn1)C(=O)O` (centres undefined), the melting point lay in the range of 70 to 72 °C.

Consider `CC(C)c1nn(C)c2sc(C(=O)O)cc12`, for which the melting point fell in the range of 209 to 211 °C.

Compound `CC(C)Cn1[nH]ccc1=NC(=O)OCC(F)(F)F` yielded a melting point of 63 to 65 °C.

For `CC(O)(c1ccc(O)cc1)C(F)(F)F` (centres undefined), the melting point lay in the range of 118 to 120 °C.

`O=C(CCl)N1CCCC1c1ccc2c(c1)OCCO2` (centres undefined) gave a melting point of 168 to 169 °C.

For the compound `CC(C)COc1ncccc1C(=O)O`, the melting point lay in the range of 84 to 86 °C.

Consider `Cc1cc(N2CC(C(=O)O)CC2=O)ccc1Br` (centres undefined), for which the melting point was in the range of 167 to 169 °C.

As for `O=C(c1ccccc1O)N1CCCCC1`, the melting point was 133 to 135 °C.

The compound `CC(C)(C)OC(=O)N1CCc2ccccc2C1C(=O)O` (centres undefined) came in with a melting point of 142 to 144 °C.

In turn, `CC(C)NS(=O)(=O)c1cccc(C(=O)O)c1` yielded a melting point of 162 to 164 °C.

As for `Nc1ccc2c(cnn2C(F)F)c1`, the melting point fell in the range of 77 to 79 °C.

`Nc1ccc2[nH]c(=O)[nH]c2c1` came in with a melting point of 167 to 169 °C.

On to `O=C(Cc1ccccc1)c1nc2ccccc2s1`, for which the melting point fell in the range of 110 to 112 °C.

`O=C(Cc1ccc(O)cc1)NCCO`: the melting point was in the range of 134 to 136 °C.

For `CS(=O)(=O)c1ccsc1C(=O)O`, the melting point lay within 179 to 181 °C.

As to `NC(=O)C1CCC(C(F)(F)F)NC1` (centres undefined), the melting point lay in the range of 127 to 129 °C.

Regarding `O=C(O)c1cc2c(s1)-c1ccccc1OC2`, the melting point is 236 to 238 °C.

Compound `Cc1c(N)cccc1CN1CCSCC1` registered a melting point of 80 to 82 °C.

Turning to `CN(C)C(=O)COc1ccc(N)cc1`, the melting point was in the range of 129 to 131 °C.

As to `O=C(O)c1cnc(-c2ccsc2)s1`, the melting point fell in the range of 208 to 210 °C.

As for `CC(=O)c1nnn(-c2ccc(Cl)cc2)c1C`, the melting point lay in the range of 113 to 115 °C.

Turning to `CC1CN(C(=O)CC#N)CC(C)O1` (centres undefined), the melting point lay in the range of 125 to 127 °C.

As for `O=C(O)c1cc(Br)sc1Br`, the melting point lay within 179 to 181 °C.

For `Nc1ccc(Oc2ccnc3cc(Cl)ccc23)c(F)c1`, the melting point was 154 to 156 °C.

Take `NC(=S)NCCc1cccs1`: the melting point lay within 127 to 129 °C.

`O=C(O)C1CCC(n2cccc2)CC1` (centres undefined) gave a melting point of 143 to 145 °C.
